Tested on: rice
Experiment: Low temperature assay on rice seedlings
Type: in vivo
Experimental: According to a low temperature assay, we measured parameters including plant height, number of leaf, area of leaf, number of tiller, weight of root at low temperature to completely determine effects of the natural brassinolide analogues on the resistance to low temperature of a plant.
The natural brassinolide analogues, BR1, BR2, BR3, BR4, BR5 and BR6, used herein, were those prepared by the method of Example 1. Respectively the analogues were dissolved into 95% (V/V) ethanol solution, and then diluted with pure water to 1 mg/L, 0.1 mg/L, 0.01 mg/L, 0.001 mg/L and 0.0001 mg/L. In addition, pure water was used as a control.
After rice seeds were disinfected by using 5% sodium hypochlorite solution treatment, they were rinsed with distilled water until their pH>7, placed into a petri dish in a dark incubator, and cultured by using water at 30° C.±2° C. for 9 days. Then respectively the nine-day-old etiolated seedlings of rice were immersed in the above solutions containing different concentrations of the natural brassinolide analogues or pure water, and cultured at the temperature of 1° C., 2° C., 3° C., 4° C. and 5° C. for 24 hr. The parameters including plant height, area of leaf and weight of root after 3, 6, 9 and 12 days and number of leaf and number of tiller after 12 days were measured.

CC(C)(O)CC[C@@H](O)[C@](C)(O)[C@H]1CC[C@@]2(O)[C@@H]3CC(=O)[C@@H]4C[C@@H](O)[C@@H](O)C[C@]4(C)[C@H]3CC[C@]12C [BR6] showed an Area of leaf (0.0001 mg/l, 1 °C, 3 days) of 10 cm^2, a Height (0.0001 mg/l, 1 °C, 3 days) of 7.1 cm and a Weight of root (0.0001 mg/l, 1 °C, 3 days) of 2.8 g. It also gave an Area of leaf (0.0001 mg/l, 1 °C, 6 days) of 11.2 cm^2, a Height (0.0001 mg/l, 1 °C, 6 days) of 7.2 cm and a Weight of root (0.0001 mg/l, 1 °C, 6 days) of 3.1 g. The Area of leaf (0.0001 mg/l, 1 °C, 9 days) was 12.4 cm^2, the Height (0.0001 mg/l, 1 °C, 9 days) was 7.4 cm and the Weight of root (0.0001 mg/l, 1 °C, 9 days) was 3.5 g. The Area of leaf (0.0001 mg/l, 1 °C, 12 days) was 13 cm^2, the Height (0.0001 mg/l, 1 °C, 12 days) was 7.4 cm and the Number of leaf (0.0001 mg/l, 1 °C, 12 days) was 3. For the same molecule, the Number of tiller (0.0001 mg/l, 1 °C, 12 days) was 3, the Weight of root (0.0001 mg/l, 1 °C, 12 days) was 3.9 g and the Area of leaf (0.0001 mg/l, 2 °C, 3 days) was 10.2 cm^2. It also gave a Height (0.0001 mg/l, 2 °C, 3 days) of 7.1 cm, a Weight of root (0.0001 mg/l, 2 °C, 3 days) of 2.8 g and an Area of leaf (0.0001 mg/l, 2 °C, 6 days) of 11.7 cm^2. It also gave a Height (0.0001 mg/l, 2 °C, 6 days) of 7.2 cm, a Weight of root (0.0001 mg/l, 2 °C, 6 days) of 3.0 g and an Area of leaf (0.0001 mg/l, 2 °C, 9 days) of 12.6 cm^2. For the same molecule, the Height (0.0001 mg/l, 2 °C, 9 days) was 7.3 cm, the Weight of root (0.0001 mg/l, 2 °C, 9 days) was 3.2 g and the Area of leaf (0.0001 mg/l, 2 °C, 12 days) was 13 cm^2. The Height (0.0001 mg/l, 2 °C, 12 days) was 7.5 cm, the Number of leaf (0.0001 mg/l, 2 °C, 12 days) was 3 and the Number of tiller (0.0001 mg/l, 2 °C, 12 days) was 3. It also gave a Weight of root (0.0001 mg/l, 2 °C, 12 days) of 3.9 g, an Area of leaf (0.0001 mg/l, 3 °C, 3 days) of 10.4 cm^2 and a Height (0.0001 mg/l, 3 °C, 3 days) of 7.1 cm. It also gave a Weight of root (0.0001 mg/l, 3 °C, 3 days) of 2.5 g, an Area of leaf (0.0001 mg/l, 3 °C, 6 days) of 12 cm^2 and a Height (0.0001 mg/l, 3 °C, 6 days) of 7.2 cm. For the same molecule, the Weight of root (0.0001 mg/l, 3 °C, 6 days) was 2.6 g, the Area of leaf (0.0001 mg/l, 3 °C, 9 days) was 12.6 cm^2 and the Height (0.0001 mg/l, 3 °C, 9 days) was 7.5 cm. It also gave a Weight of root (0.0001 mg/l, 3 °C, 9 days) of 2.9 g, an Area of leaf (0.0001 mg/l, 3 °C, 12 days) of 13.2 cm^2 and a Height (0.0001 mg/l, 3 °C, 12 days) of 7.6 cm. It also gave a Number of leaf (0.0001 mg/l, 3 °C, 12 days) of 3, a Number of tiller (0.0001 mg/l, 3 °C, 12 days) of 2 and a Weight of root (0.0001 mg/l, 3 °C, 12 days) of 2.9 g. The Area of leaf (0.0001 mg/l, 4 °C, 3 days) was 10.6 cm^2, the Height (0.0001 mg/l, 4 °C, 3 days) was 7.1 cm and the Weight of root (0.0001 mg/l, 4 °C, 3 days) was 2.5 g. It also gave an Area of leaf (0.0001 mg/l, 4 °C, 6 days) of 12.2 cm^2, a Height (0.0001 mg/l, 4 °C, 6 days) of 7.3 cm and a Weight of root (0.0001 mg/l, 4 °C, 6 days) of 2.6 g. It also gave an Area of leaf (0.0001 mg/l, 4 °C, 9 days) of 13 cm^2, a Height (0.0001 mg/l, 4 °C, 9 days) of 7.5 cm and a Weight of root (0.0001 mg/l, 4 °C, 9 days) of 2.8 g. For the same molecule, the Area of leaf (0.0001 mg/l, 4 °C, 12 days) was 13.4 cm^2, the Height (0.0001 mg/l, 4 °C, 12 days) was 7.7 cm and the Number of leaf (0.0001 mg/l, 4 °C, 12 days) was 3. The Number of tiller (0.0001 mg/l, 4 °C, 12 days) was 2, the Weight of root (0.0001 mg/l, 4 °C, 12 days) was 2.9 g and the Area of leaf (0.0001 mg/l, 5 °C, 3 days) was 10.6 cm^2. For the same molecule, the Height (0.0001 mg/l, 5 °C, 3 days) was 7.2 cm, the Weight of root (0.0001 mg/l, 5 °C, 3 days) was 2.6 g and the Area of leaf (0.0001 mg/l, 5 °C, 6 days) was 12.8 cm^2. The Height (0.0001 mg/l, 5 °C, 6 days) was 7.5 cm, the Weight of root (0.0001 mg/l, 5 °C, 6 days) was 2.7 g and the Area of leaf (0.0001 mg/l, 5 °C, 9 days) was 13.6 cm^2. For the same molecule, the Height (0.0001 mg/l, 5 °C, 9 days) was 7.5 cm, the Weight of root (0.0001 mg/l, 5 °C, 9 days) was 2.9 g and the Area of leaf (0.0001 mg/l, 5 °C, 12 days) was 14 cm^2. For the same molecule, the Height (0.0001 mg/l, 5 °C, 12 days) was 7.8 cm, the Number of leaf (0.0001 mg/l, 5 °C, 12 days) was 3 and the Number of tiller (0.0001 mg/l, 5 °C, 12 days) was 2. It also gave a Weight of root (0.0001 mg/l, 5 °C, 12 days) of 3.0 g, an Area of leaf (0.001 mg/l, 1 °C, 3 days) of 10 cm^2 and a Height (0.001 mg/l, 1 °C, 3 days) of 6.9 cm. For the same molecule, the Weight of root (0.001 mg/l, 1 °C, 3 days) was 2.8 g, the Area of leaf (0.001 mg/l, 1 °C, 6 days) was 11.3 cm^2 and the Height (0.001 mg/l, 1 °C, 6 days) was 7.1 cm. For the same molecule, the Weight of root (0.001 mg/l, 1 °C, 6 days) was 3.1 g, the Area of leaf (0.001 mg/l, 1 °C, 9 days) was 12.6 cm^2 and the Height (0.001 mg/l, 1 °C, 9 days) was 7.3 cm. It also gave a Weight of root (0.001 mg/l, 1 °C, 9 days) of 3.4 g, an Area of leaf (0.001 mg/l, 1 °C, 12 days) of 13 cm^2 and a Height (0.001 mg/l, 1 °C, 12 days) of 7.3 cm. For the same molecule, the Number of leaf (0.001 mg/l, 1 °C, 12 days) was 3, the Number of tiller (0.001 mg/l, 1 °C, 12 days) was 3 and the Weight of root (0.001 mg/l, 1 °C, 12 days) was 3.9 g. For the same molecule, the Area of leaf (0.001 mg/l, 2 °C, 3 days) was 10.3 cm^2, the Height (0.001 mg/l, 2 °C, 3 days) was 6.9 cm and the Weight of root (0.001 mg/l, 2 °C, 3 days) was 2.8 g.

— patent US9326506B2, “Preparation method, agricultural composition and applications of natural brassinolide analogs” (CHENGDU NEWSUN CROPSCIENCE CO., LTD, priority 2012, dated 2016)
